Columns and labels:
[1] = target: T1, 5-HT1A receptor (Homo sapiens, UniProt P08908); assay: 5-HT1A receptor cAMP agonist test (HEK293 cell line stably expressing 5-HT1A receptor); format: cell-based; conditions: for EC50: cAMP agonist assay with forskolin, HEK293 cells stably expressing 5-HT1A; for 5-HT1A Max Act %: maximal activation rate relative to Serotonin positive control
T1 construct: expressed in transfected cells
T1 sequence (P08908 1-422): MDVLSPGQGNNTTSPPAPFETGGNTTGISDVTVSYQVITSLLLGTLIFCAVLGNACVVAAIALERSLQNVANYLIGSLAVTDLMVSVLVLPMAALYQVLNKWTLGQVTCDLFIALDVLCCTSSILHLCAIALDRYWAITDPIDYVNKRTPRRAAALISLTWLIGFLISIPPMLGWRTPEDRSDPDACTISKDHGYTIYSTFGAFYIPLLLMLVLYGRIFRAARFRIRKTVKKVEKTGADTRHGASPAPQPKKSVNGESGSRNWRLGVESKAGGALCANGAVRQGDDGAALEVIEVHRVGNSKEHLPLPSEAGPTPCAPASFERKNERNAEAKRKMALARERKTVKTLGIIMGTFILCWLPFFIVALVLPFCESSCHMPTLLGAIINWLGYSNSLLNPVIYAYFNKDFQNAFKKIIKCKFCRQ
Protocol: 2.1 Experimental Materials:
The cAMP detection kit was purchased from Cisbio; the HEK293 cell line stably expressing 5-HT1A receptor was constructed by Shanghai Shujing Biotechnology Co., Ltd.; Serotonin, Forskolin and IBMX were purchased from Sigma; ProxiPlate-384-well plates was purchased from PerkinElmer; HBSS was purchased from Thermo Fisher Scientific.
(§1) (1) Preparation of experimental buffer: 5×stimulation buffer was diluted to 1× with ddH2O, adding IBMX with a final concentration of 0.5 mM, mixing well for later use.
(2) The cultured cells were digested with trypsin, and the cell suspension was washed with HBSS buffer after the digestion was terminated, centrifuging to remove the culture medium at 200×g; the precipitate was resuspended with an appropriate amount of experimental buffer, taking 20 μL for counting with a cell counter, and diluting to 0.4×10^6 cells/mL.
(3) 5 μL cell suspension (2×10^3 cells per well) was added to ProxiPlate-384 well plate.
(4) The compound to be tested was diluted in the experimental buffer by gradient, and 5 μL was transferred to the reaction plate using Bravo, 5 μL experimental buffer was put in each negative control well, and 5 μL Serotonin (final concentration 10^−6 M) was put in each positive control well.
(5) Incubating at room temperature for 15 minutes.
(6) Forskolin (final concentration 1.5×10^−7M) was added to the reaction plate using TecanD300e picoliter micro-dosing system.
(7) Incubating at room temperature for 45 minutes.
(8) 10 μL detection reagent was added to the reaction plate, incubating at room temperature for 1 hour in dark.
(§2) Activation rate (activity %)=(negative control ratio-compound ratio)/(negative control ratio-positive control ratio)×100%
The EC50 values of the compounds were calculated using the four-parameter fitting model log(agouist)vs. response—Variable slope (four parameters) in Graph Pad Prism.

[2] = target: T2, TAAR1 receptor (Homo sapiens, UniProt Q96RJ0); assay: TAAR1 receptor cAMP agonist test (HEK293 cell line stably expressing TAAR1 receptor); format: cell-based; conditions: for EC50: cAMP agonist assay, HEK293 cells stably expressing TAAR1; for TAAR1 Max Act %: maximal activation rate relative to PEA positive control
T2 construct: expressed in transfected cells
T2 sequence (Q96RJ0 1-339): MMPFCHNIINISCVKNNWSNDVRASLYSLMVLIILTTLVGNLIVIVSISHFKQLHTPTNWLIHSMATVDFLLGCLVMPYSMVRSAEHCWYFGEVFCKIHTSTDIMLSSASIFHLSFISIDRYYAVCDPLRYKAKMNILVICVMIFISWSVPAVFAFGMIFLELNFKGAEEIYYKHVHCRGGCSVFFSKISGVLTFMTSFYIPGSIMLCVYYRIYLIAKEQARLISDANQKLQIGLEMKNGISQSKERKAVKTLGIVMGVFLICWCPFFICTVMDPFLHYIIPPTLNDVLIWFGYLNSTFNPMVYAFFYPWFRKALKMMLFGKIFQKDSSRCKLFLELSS
Protocol: 1.1 Experimental Materials:
The cAMP detection lit was purchased from Cisbio; the […] cell line stably expressing TAAR1 receptor was constructed by Shanghai Singing Biotechnology Co., Ltd.; IBMX was purchased from Sigma; Phenethylamine (PEA); ProxiPlate-384 well plate was purchased from PerkinElmer. HBSS was purchased from Thermo Fisher Scientific Company.
as §1
(2) The frozen cells were thawed quickly in a 37° C. water bath, the cell suspension was washed with HBSS buffer, centrifuging at 200×g to remove the frozen storage solution, the pellet was resuspended with an appropriate amount of experimental buffer, taking 20 μL for counting with a cell counter, and diluting to 1.5×10^6 cells/mL.
(3) 5 μL of cell suspension (1.5×10^4 cells per well) was added to the ProxiPlate-384 well plate.
(4) The compound to be tested was diluted in the experimental buffer by gradient, and 5 μL was transferred to the reaction plate using Bravo, 5 μL experimental buffer was put in each negative control well, and 5 μL PEA (final concentration 10^−2M) was put in each positive control well.
(5) Incubating at 37° C. for 1 hour.
(6) 10 ELL of detection reagent was added to the reaction plate, incubating at room temperature for 1 hour in dark.
as §2
The EC50 values of the compounds were calculated using the four-parameter fitting model log(agonist)vs.response—Variable slope (four parameters) in GraphPad Prism.

[3] = tested on: high spontaneous activity induced by PCP; assay: Inhibition of high spontaneous activity induced by PCP in mice; format: in vivo; conditions: male C57Bl/6J mice, compound p.o. 30 min before PCP 5 mg/kg i.p.
Description: Compounds to be tested: compounds of the examples of the present application, self-made.
Phencyclidine hydrochloride (PCP): purchased from Shanghai Yuansi Standard Science Technology Co., Ltd., specification: 5 g.
(§3) Experimental animals: 18-22 g male C57Bl/6J mice, purchased from Shanghai Slack Experimental Animal Co., Ltd.
That is, animals were transferred from the feeding room to the laboratory, and moved freely in the cage.
The animals were randomly divided into blank group, model group, and administration group according to body weight, 9 mice/group, and the detailed administration information is shown in the following table:
T0 min intraperitoneal injection of modeling drug: 30 minutes after compound administration, the mice were taken out, and administered with PCP (5 mg/kg) by intraperitoneal injection. The blank control group was injected with pure water.
(§4) The activities of these animals (movement distance in the test box) were automatically recorded by the camera, and analyzed with ANY MAZE software, and the ED50 values were calculated.

[4] = tested on: high spontaneous activity induced by MK-801; assay: Inhibition of high spontaneous activity induced by MK-801 in mice; format: in vivo; conditions: male C57Bl/6J mice, compound p.o. 30 min before MK-801 0.3 mg/kg i.p.
Protocol: 3.1 Experimental Materials:
Compounds to be tested: compounds in the examples of the present application, self-made.
as §3
3.2.1 Grouping of animals: before the start of the experiment, animals were randomly grouped according to body weight. 3.2.2 Animal adaptation: before the experiment, the mice were first adapted to the experimental environment for at least 1 hour. That is, the animals were transferred from the breeding room to the laboratory and moved freely in the cage.
Drug preparation: taking the compound to be tested, adding pure water and performing ultrasonication.
The animals were randomly divided into blank group, model group, and administration group according to body weight, 9 mice % group, and the detailed administration information is shown in the following table:
T-30 min oral administration of compound: compound to be tested or solvent (pure water) was administered orally by gavage, and put into test box (test box size length*width*height=27*27*40 cm) immediately after administration, recording the spontaneous activity of the mice within 30 minutes.
The blank control group was injected with normal saline.
3.2.4 Data Recording and Analysis.
as §4

Row | SMILES | EC50 [1] | 5-HT1A Max Act % [1] | EC50 [2] | TAAR1 Max Act % [2] | MED (minimum effective dose) [3] | MED (minimum effective dose) [4] | ED50 ([4]; Mus musculus, movement distance over 150 min, read-out: ED50 (half effective dose))
1 | CNCC1OCC2(CC2)c2c(C)csc21 (stereo not drawn) [Example 7, 1-(3′-methyl-5′H,7′H-Spiro[cyclopropane-1,4′-thieno[2,3-c]pyran]-7′-yl)-N-methylmethylamine] | 394 nM | 93.4% | – | – | – | – | –
2 | CNC[C@H]1OCC2(CC2)c2sccc21 (single isomer, unassigned) [Example 9-S] | – | – | 795 nM | 95.8% | – | – | –
3 | [2H]C([2H])([2H])NC[C@@H]1OCC2(CC2)c2sccc21 [Example 32-R, (R)—N-((4′,6′-dihydrospiro[cyclopropane-1,7′-thieno[3,2-c]pyran]-4′-yl)methyl)methyl-D3-amine] | 1670 nM | 86.3% | – | – | – | – | –
4 | CNC[C@@H]1OCC2(CC2)c2sccc21 (single isomer, unassigned) [Example 9-R] | – | – | – | – | 0.1 mg/kg | 10 mg/kg | –
5 | [2H]C([2H])([2H])NC[C@H]1OCC2(CC2)c2sccc21 [Example 32-S, (S)—N-((4′,6′-dihydrospiro[cyclopropane-1,7′-thieno[3,2-c]pyran]-4′-yl)methyl)methyl-D3-amine] | – | – | 806 nM | 97.1% | – | – | –
6 | CCNCC1OCC2(CC2)c2ccsc21 (stereo not drawn) [Example 16, N-((5′H,7′H-spiro[cyclopropane-1,4′-thieno[2,3-c]pyran]-7′-yl)methyl)ethylamine] | 1380 nM | 115.6% | – | – | – | – | –
7 | CNC[C@@H]1OCC2(CC2)c2ccsc21 (single isomer, unassigned) [Example 8-S] | 903 nM | 90.7% | 704 nM | 96.1% | 0.3 mg/kg | 0.3 mg/kg | 0.36 mg/kg
8 | CNCC1OCC2(CC2)c2ccsc21 (stereo not drawn) [Example 8, 1-(5′H,7′H-Spiro[cyclopropane-1,4-thieno[2,3-c]pyran]-7′-yl)-N-methylmethylamine] | 1540 nM | 91.6% | 1630 nM | 96.6% | – | – | –
9 | CNCC1OCC2(CC2)c2sccc21 (stereo not drawn) [Example 9, 1-(4′H,6′H-spiro[cyclopropane-1,7′-thieno[3,2-c]pyran]-4′-yl)-N-methylmethylamine] | 2440 nM | 92.7% | 1670 nM | 95.5% | – | – | –
10 | [2H]C([2H])([2H])NCC1OCC2(CC2)c2ccsc21 (stereo not drawn) [Example 15, N-((5′H,7′H-Spiro[cyclopropane-1,4′-thieno[2,3-c]pyran]-7′-yl)methyl)methane-d3-amine] | 2680 nM | 93.7% | 1730 nM | 93.3% | – | – | –
11 | CNCC1OCC2(CCC2)c2ccsc21 (stereo not drawn) [Example 2, 1-(5′H,7′H-spiro[cyclobutane-1,4′-thieno[2,3c]pyran]-7′-yl)-N-methylmethylamine] | 257 nM | 108.9% | – | – | – | – | –
12 | [2H]C([2H])([2H])NCC1OCC2(CC2)c2sccc21 (stereo not drawn) [Example 32, N-((4′,6′-dihydrospiro[cyclopropane-1,7′-thieno[3,2-c]pyran]-4′-yl)methyl)methyl-D3-amine] | 1880 nM | 80.5% | 1320 nM | 97.7% | – | – | –
13 | c1cc2c(s1)C(CN1CCC1)OCC21CC1 (stereo not drawn) [Example 23, 1-((5′H,7′H-Spiro[cyclopropane-1,4′-thieno[2,3-c]pyran]-7′-yl)methyl)azetidine] | 5510 nM | 75.5% | – | – | – | – | –

Source: patent US20240190888A1, “SPIRO-CONTAINING DERIVATIVE, AND PREPARATION METHOD THEREFOR AND USE THEREOF” (priority 2021, published 2024)
